From patent US9096524B2, “Anthelmintic agents and their use” (Intervet International B.V., priority 2009, dated 2015) come the findings set out here.

One experiment has as its system Haemonchus contortus. The experiment can be described thus: Efficacy against Haemonchus contortus in jirds. It is filed as in vivo, jirds (Meriones unguiculatus). Conditions: 72 h, read-out: % Reduction in H. Here is the method:
Anthelmintic effects of compounds of this invention were tested in vivo using Haemonchus contuortus in jirds (Meriones unguiculatus). The jirds were orally infected with approximately 750-3,000 third-stage larvae of Haemonchus contortus. Ten days after infection, the jirds in the treatment groups were treated once orally or subcutaneously at a dose of 2, 10, and/or 50 mg per kg bodyweight. Three days after treatment, the jirds were necropsied, and the larvae burden in the stomach is determined. The efficacy is defined as the reduction of the mean larvae count in the jirds of the treatment groups in comparison to the infected jirds in the untreated negative control group.

The subject of experiment [1] is A. galli (intestinal roundworm of chicken) larval stage 3; O. dentatum (nodular worm of swine) larval stages 3 and 4. The experiment can be described thus: Activity against Ascaridia galli and Oesophagostomum dentatum larvae in vitro (minimum effective concentration). It is filed as cell-based.
The mark [2] stands for this setting: read-out: MEC (minimum effective concentration) against one or more of the tested nematodes, in vitro, one or more of A. galli L3, O. dentatum L3, L4, threshold 1 μM.
Setting [3] is: read-out: MEC (minimum effective concentration) against one or more of the tested nematodes, in vitro, one or more of A. galli L3, O. dentatum L3, L4, threshold 7 μM.
Where [4] appears, read: read-out: MEC (minimum effective concentration) against two or more of the tested nematodes, in vitro, two or more of A. galli L3, O. dentatum L3, L4, threshold 1 μM.
[5] abbreviates: jirds, 50 mg/kg, oral, single treatment, larvae burden in stomach 3 days after treatment.
[6] abbreviates: sc, jirds, 50 mg/kg, subcutaneous, single treatment, larvae burden in stomach 3 days after treatment.

Each structure is given as a SMILES string. Read-outs that look alike come from different tables or passages of the source. A value given as a limit tells only on which side of the number the result lay.

Take `CSc1ccc(NC2CCN(C(=O)CCCN3CCN(c4ccc(C(F)(F)F)cc4)CC3)CC2)cc1C(F)(F)F` [Example 5, 1-[4-(4-methylsulfanyl-3-trifluoromethyl-phenylamino)-piperidin-1-yl]-4-[4-(4-trifluoromethyl-phenyl)-piperazin-1-yl]-butan-1-one]: the values for the inhibition in vivo at 50 mg/kg with Haemonchus contortus (po) and with Haemonchus contortus (sc) were 87% and 99%, respectively. The minimal effective concentration was less than 1 µM in experiment [1] (setting [2]), less than 7 µM in experiment [1] (setting [3]) and less than 1 µM in experiment [1] (setting [4]).

As for `N#Cc1cccc(NC2CCN(C(=O)CCCN3CCN(c4ccc(C(F)(F)F)cc4)CC3)CC2)c1` [Example 7, 3-(1-{4-[4-(4-trifluoromethyl-phenyl)-piperazin-1-yl]-butyryl}-piperidin-4-ylamino)-benzonitrile], the results for the inhibition in vivo at 50 mg/kg in the experiment with Haemonchus contortus (po) and in the experiment with Haemonchus contortus (sc) were 99% and 98%, respectively. Moreover, the minimal effective concentration in experiment [1] (setting [2]) is less than 1 µM; in experiment [1] (setting [3]), less than 7 µM; in experiment [1] (setting [4]), less than 1 µM.

Regarding `O=C(COC1CCN(c2ccc(C(F)(F)F)cc2)CC1)N1CCC(Nc2ccc([N+](=O)[O-])c(C(F)(F)F)c2)CC1` [Example 12, 1-[4-(4-nitro-3-trifluoromethyl-phenylamino)-piperidin-1-yl]-2-[1-(4-trifluoromethyl-phenyl)-piperidin-4-yloxy]-ethanone], the inhibition in vivo at 50 mg/kg in the experiment with Haemonchus contortus (po) stood at 96%; in the experiment on Haemonchus contortus (sc) it was 100%. Further, the minimal effective concentration was less than 1 µM in experiment [1] (setting [2]), less than 7 µM in experiment [1] (setting [3]) and less than 1 µM in experiment [1] (setting [4]).

Consider `O=C(CCN1CCC(c2ccc(C(F)(F)F)cc2)CC1)N1CCC(Nc2ccc([N+](=O)[O-])c(C(F)(F)F)c2)CC1` [Example 14, 1-[4-(4-nitro-3-trifluoromethyl-phenylamino)-piperidin-1-yl]-3-[4-(4-trifluoromethyl-phenyl)-piperidin-1-yl]-propan-1-one], for which the inhibition in vivo at 50 mg/kg with Haemonchus contortus (po) worked out at 87%; in the experiment on Haemonchus contortus (sc), 99%. For the same molecule, the values for the minimal effective concentration in experiment [1] (setting [2]), in experiment [1] (setting [3]) and in experiment [1] (setting [4]) were less than 1 µM, less than 7 µM and less than 1 µM, respectively.

Consider `O=C(CCCN1CCN(c2ccc(C(F)(F)F)cc2)CC1)N1CCC(Nc2ccc(Cl)c(SC(F)(F)F)c2)CC1` [Example 17, 1-[4-(4-chloro-3-trifluoromethylsulfanyl-phenylamino)-piperidin-1-yl]-4-[4-(4-trifluoromethyl-phenyl)-piperazin-1-yl]-butan-1-one], for which the results for the inhibition in vivo at 50 mg/kg with Haemonchus contortus (po) and with Haemonchus contortus (sc) were 100% and 96%, respectively. Also, the minimal effective concentration in experiment [1] (setting [2]) was less than 1 µM; in experiment [1] (setting [3]), less than 7 µM; in experiment [1] (setting [4]), less than 1 µM.

Consider `Cn1nnc(-c2ccc(NC3CCN(C(=O)CCCN4CCN(c5ccc(C(F)(F)F)cc5)CC4)CC3)cc2)n1` [Example 21, 1-{4-[4-(2-methyl-1H-tetrazol-5-yl)-phenylamino]-piperidin-1-yl}-4-[4-(4-trifluoromethyl-phenyl)-piperazin-1-yl]-butan-1-one], for which the values for the inhibition in vivo at 50 mg/kg with Haemonchus contortus (po) and with Haemonchus contortus (sc) were 95% and 38%, respectively. The minimal effective concentration in experiment [1] (setting [2]) was less than 1 µM; in experiment [1] (setting [3]) it was less than 7 µM; in experiment [1] (setting [4]), less than 1 µM.

Turning to `O=C(CCN1CCN(c2ccc(OCc3ccccc3)cc2)CC1)N1CCC(Nc2ccc([N+](=O)[O-])c(C(F)(F)F)c2)CC1` [Example 23, 3-[4-(4-benzyloxy-phenyl)-piperazin-1-yl]-1-[4-(4-nitro-3-trifluoromethyl-phenylamino)-piperidin-1-yl]-propan-1-one], the values for the inhibition in vivo at 50 mg/kg in the experiment on Haemonchus contortus (po) and in the experiment with Haemonchus contortus (sc) were 66% and 92%, respectively. Moreover, the values for the minimal effective concentration in experiment [1] (setting [2]), in experiment [1] (setting [3]) and in experiment [1] (setting [4]) were less than 1 µM, less than 7 µM and less than 1 µM, respectively.

Take `CC(C)COc1ccc(N2CCN(CCC(=O)N3CCC(Nc4ccc([N+](=O)[O-])c(C(F)(F)F)c4)CC3)CC2)cc1` [Example 26, 3-[4-(4-isobutoxy-phenyl)-piperazin-1-yl]-1-[4-(4-nitro-3-trifluoromethyl-phenylamino)-piperidin-1-yl]-propan-1-one]: the inhibition in vivo at 50 mg/kg in the experiment on Haemonchus contortus (po) was 64%; in the experiment with Haemonchus contortus (sc), 91%. Moreover, the values for the minimal effective concentration in experiment [1] (setting [2]), in experiment [1] (setting [3]) and in experiment [1] (setting [4]) were less than 1 µM, less than 7 µM and less than 1 µM, respectively.

For the molecule `CS(=O)(=O)c1ccc(NC2CCN(C(=O)CCCN3CCN(c4ccc(C(F)(F)F)cc4)CC3)CC2)cc1C(F)(F)F` [Example 30, 1-[4-(4-methanesulfonyl-3-trifluoromethyl-phenylamino)-piperidin-1-yl]-4-[4-(4-trifluoromethyl-phenyl)-piperazin-1-yl]-butan-1-one], the inhibition in vivo at 50 mg/kg was found to be 62% in the experiment on Haemonchus contortus (po) and 69% in the experiment with Haemonchus contortus (sc). In addition, the minimal effective concentration in experiment [1] (setting [2]) was less than 1 µM; in experiment [1] (setting [3]) it was less than 7 µM; in experiment [1] (setting [4]) it was less than 1 µM.

`O=C(CCCN1CCN(c2ccc(C(F)(F)F)cc2)CC1)N1CCC(Nc2ccc(S(=O)(=O)c3ccc(F)cc3)cc2)CC1` [Example 33, 1-{4-[4-(4-fluoro-benzenesulfonyl)-phenylamino]-piperidin-1-yl}-4-[4-(4-trifluoromethyl-phenyl)-piperazin-1-yl]-butan-1-one]: the inhibition in vivo at 50 mg/kg in the experiment on Haemonchus contortus (po) turned out to be 55%; in the experiment on Haemonchus contortus (sc) it was 69%. In addition, the minimal effective concentration in experiment [1] (setting [2]) was less than 1 µM; in experiment [1] (setting [3]), less than 7 µM; in experiment [1] (setting [4]), less than 1 µM.

In the case of `CC(C)(C)c1ccc(N2CCN(CCCC(=O)N3CCC(Nc4ccc([N+](=O)[O-])c(C(F)(F)F)c4)CC3)CC2)cc1` [Example 90, 4-[4-(4-tert-butyl-phenyl)-piperazin-1-yl]-1-[4-(4-nitro-3-trifluoromethyl-phenylamino)-piperidin-1-yl]-butan-1-one], the inhibition in vivo at 10 mg/kg in the experiment with Haemonchus contortus (po) is 46%; in the experiment on Haemonchus contortus (sc), 42%.

Turning to `CC(CN1CCN(c2ccc(C(F)(F)F)cc2)CC1)C(=O)N1CCC(Nc2ccc(C#N)c(C(F)(F)F)c2)CC1` (stereo not drawn) [Example 92, 4-(1-{2-methyl-3-[4-(4-trifluoromethyl-phenyl)-piperazin-1-yl]-propionyl}-piperidin-4-ylamino)-2-trifluoromethyl-benzonitrile], the inhibition in vivo at 50 mg/kg with Haemonchus contortus (setting [5]) was 100%; in the experiment on Haemonchus contortus (setting [6]), 91%.

Take `N#Cc1ccc(NC2CCN(C(=O)CCCN3CCN(c4ccc(C(F)(F)F)cn4)CC3)CC2)cc1C(F)(F)F` [Example 157, 2-trifluoromethyl-4-(1-{4-[4-(5-trifluoromethyl-pyridin-2-yl)-piperazin-1-yl]-butyryl}-piperidin-4-ylamino)-benzonitrile]: the inhibition in vivo at 10 mg/kg with Haemonchus contortus (jirds, 10 mg/kg, oral, single treatment, larvae burden in stomach 3 days after treatment) stood at 96%; in the experiment on Haemonchus contortus (sc, jirds, 10 mg/kg, subcutaneous, single treatment, larvae burden in stomach 3 days after treatment), 93%.

For the molecule `CCOc1cc(NC2CCN(C(=O)CCN3CCC(c4ccc(Cl)cc4)CC3)CC2)ccc1[N+](=O)[O-]` [Example 414], the inhibition in vivo at 50 mg/kg in the experiment on Haemonchus contortus (setting [5]) was determined as 0%; in the experiment on Haemonchus contortus (setting [6]), 98%.

Turning to `CC(C)(C)c1ccc(N2CCC(OCC(=O)N3CCC(Nc4ccc([N+](=O)[O-])c(C(F)(F)F)c4)CC3)CC2)cc1` [Example 416], the inhibition in vivo at 50 mg/kg was 88% in the experiment on Haemonchus contortus (setting [5]) and 98% in the experiment on Haemonchus contortus (setting [6]).

Take `CCCc1ccc(C2CCN(CCC(=O)N3CCC(Oc4ccc([N+](=O)[O-])c(OCC(C)C)c4)CC3)CC2)cc1` [Example 532]: the inhibition in vivo at 50 mg/kg was 90% in the experiment with Haemonchus contortus (setting [5]) and 99% in the experiment with Haemonchus contortus (setting [6]).

With `CC(C)COc1cc(OC2CCN(C(=O)CCN3CCC(c4ccc(C(C)(C)C)cc4)CC3)CC2)ccc1[N+](=O)[O-]` [Example 533], the inhibition in vivo at 50 mg/kg with Haemonchus contortus (setting [5]) turned out to be 83%; in the experiment on Haemonchus contortus (setting [6]), 74%.

Consider `O=C(NCC1CCN(c2ccc(C(F)(F)F)cc2)CC1)N1CCC(Nc2ccc([N+](=O)[O-])c(C(F)(F)F)c2)CC1` [Example 539], for which the inhibition in vivo at 50 mg/kg with Haemonchus contortus (setting [5]) stood at 82%; in the experiment with Haemonchus contortus (setting [6]), 73%.

With `CN(CC1CCN(c2ccccc2)CC1)C(=O)N1CCC(Nc2ccc([N+](=O)[O-])c(C(F)(F)F)c2)CC1` [Example 565], the inhibition in vivo at 50 mg/kg came out at 70% in the experiment with Haemonchus contortus (setting [5]) and 90% in the experiment with Haemonchus contortus (setting [6]).

Consider `Cc1ccc(N2CCC(CN(C)C(=O)N3CCC(Nc4ccc([N+](=O)[O-])c(C(F)(F)F)c4)CC3)CC2)cc1` [Example 566], for which the inhibition in vivo at 50 mg/kg in the experiment on Haemonchus contortus (setting [5]) turned out to be 83%; in the experiment on Haemonchus contortus (setting [6]), 93%.

As for `CC(CN1CCN(c2ccc(Cl)cc2)CC1)C(=O)N1CCC(Nc2ccc(C#N)c(C(F)(F)F)c2)CC1` (stereo not drawn) [Example 581], the inhibition in vivo at 50 mg/kg in the experiment with Haemonchus contortus (po) came out at 68%; with Haemonchus contortus (sc), 10%.
